Common to all, as to experiment: growth of human tumour cells (NCI), 48 h
The test system of assay [1] is M14 melanoma.
In assay [2] the test system is HCT-116 colon.
Assay [3] deals with LOX IMVI melanoma.
Assay [4] concerns UACC-257 melanoma.
The subject of assay [5] is SN12C renal.
For assay [6], the system named is OVCAR-8 ovarian.
In assay [7] the test system is OVCAR-4 ovarian.
Assay [8] deals with NCI-H226 lung.
Assay [9] relates to SF-295 CNS.
Assay [10] deals with HCT-15 colon.
Assay [11] concerns DU-145 prostate.
For assay [12], the system named is UO-31 renal.

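Following 48 hours of exposure in 96-well plates, responses at five concentrations were used to interpolate endpoints linearly. TGI marks complete inhibition of growth.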

In the case of `CCCCCCCCCCCCCCCCCCNc1ccn(C2OC(CO)C(OP(=O)(O)OCC3CCC(n4ccc(N)nc4=O)O3)C2O)c(=O)n1` (stereo unspecified), the TGI in assay [1], in assay [2], in assay [3], in assay [4], in [5] and in [6] was more than 100 µM throughout. Also, the TGI in assay [7] was more than 100 µM; in assay [8], more than 100 µM; in assay [9] it was more than 100 µM; in [10], more than 100 µM; in assay [11] it was more than 100 µM; in assay [12], 56.7 µM.

As to `COC(=O)C1=NN2c3ccccc3CN([C@@H](C)c3ccccc3)C(=O)[C@@H]2C1`, the TGI is 57.5 µM in assay [1]; more than 100 µM in assay [2]; 77.1 µM in assay [3]; more than 100 µM in assay [4]; more than 100 µM in assay [5]; more than 100 µM in [6]. Besides, the TGI in assay [7] was 26.1 µM; in assay [8] it was more than 100 µM; in assay [9], more than 100 µM; in [10], more than 100 µM; in [11], more than 100 µM; in assay [12] it was 60.7 µM.

Regarding `COC(=O)c1ccccc1CC1Cc2cc3c(cc2C1)CCC3`, the TGI in [1] is 93.4 µM; in assay [2] it was 83.1 µM; in [3] it was 47.8 µM; in assay [4], 73.1 µM; in [5], more than 100 µM; in assay [6], more than 100 µM. The TGI in assay [7], in [8], in assay [9], in [10], in [11] and in [12] was more than 100 µM in each case.

`C=C1C(=O)C=C2C=C3C(=O)C(C)(C)C[C@]3(O)C12C` (stereo partly specified): the TGI in [1] is 3.04 µM; in [2], 9 µM; in [3] it was 11 µM; in assay [4], 9.13 µM; in [5], 23.9 µM; in [6], 29.3 µM. The TGI in [7] was 12.7 µM; in assay [8], 45.6 µM; in assay [9] it was 45.7 µM; in [10], 11.7 µM; in assay [11], 33.9 µM; in [12], 14 µM.

Regarding `O=C1c2c(Br)sc(Br)c2[C@H]2NC(=S)O[C@@H]12`, the TGI in [1] turned out to be 30.5 µM; in assay [2], 24.5 µM; in assay [3], 30.5 µM; in assay [4], 31.3 µM; in [5] it was 32.7 µM; in [6], 24.5 µM. Further, the TGI in assay [7] is 31.9 µM; in [8], 42.9 µM; in [9], 45.5 µM; in assay [10], 16.6 µM; in [11], 30.7 µM; in assay [12] it was 29.8 µM.

Turning to `C[C@H](CCc1nc(C#N)c(N)o1)[C@H]1CC[C@H]2[C@@H]3[C@@H](O)CC4C[C@@H](O)CC[C@]4(C)[C@H]3C[C@@H](O)[C@]12C` (stereo partly specified), the TGI in assay [1] was more than 75.8 µM; in assay [2] it was 50 µM; in [3], 29.2 µM; in assay [4], 50.6 µM; in [5], more than 79.6 µM; in assay [6] it was 41.7 µM. For the same compound, the TGI in assay [7] is more than 87.6 µM; in [8] it was 62.9 µM; in assay [9] it was 53.2 µM; in assay [10] it was more than 93 µM; in assay [11], more than 76.3 µM; in assay [12] it was 61.8 µM.

Take `CCCCc1ccc(Nc2nc(Cl)c3[nH]cnc3n2)cc1`: the TGI in assay [1] is 41.5 µM; in assay [2] it was 29.9 µM; in assay [3] it was 26.6 µM; in [4] it was 30.8 µM; in assay [5], 49.9 µM; in assay [6] it was 37.3 µM. The TGI was more than 100 µM in assay [7]; more than 100 µM in assay [8]; 34.6 µM in assay [9]; 34.4 µM in assay [10]; 61.8 µM in assay [11]; 72.5 µM in [12].

On to `CN1N=C(c2ccncc2)OC1c1ccc(Cl)c(Cl)c1` (stereo unspecified), for which the TGI in assay [1], in [2], in assay [3], in [4], in assay [5] and in assay [6] was more than 100 µM throughout. Also, the TGI in [7], in assay [8], in assay [9], in assay [10], in assay [11] and in assay [12] was more than 100 µM each time.

For the compound `C=CCCCC1(C)CCCCNC1=O` (stereo unspecified), the TGI in [1], in assay [2], in assay [3], in [4], in [5] and in assay [6] was more than 10 µM each time. For the same compound, the TGI in assay [7], in assay [8], in assay [9], in assay [10], in assay [11] and in assay [12] was more than 10 µM throughout.

Consider `CC[C@H](CCCCC1CC[C@@H]2CC(=O)C[C@H]12)OC` (stereo partly specified), for which the TGI in assay [1], in assay [2], in assay [3], in assay [4], in assay [5] and in assay [6] was more than 100 µM throughout. The TGI in [7], in assay [8], in assay [9], in assay [10], in assay [11] and in assay [12] was more than 100 µM in each case.

For `Nc1nc(Cl)c2ncn(Cc3ccccc3CCl)c2n1`, the TGI in [1] is 40.1 µM; in assay [2], more than 100 µM; in [3], 21.9 µM; in [4], 38.2 µM; in assay [5] it was 5.62 µM; in [6] it was 19.6 µM. In addition, the TGI in assay [7] came out at 6.47 µM; in assay [8], 9.95 µM; in assay [9], 23.4 µM; in [10], 7.45 µM; in assay [11] it was 32.3 µM; in [12], 45 µM.

Turning to `Cc1cccc(C)c1NC(=S)/N=C/C1=C(O)c2ccccc2C1=O`, the TGI in assay [1] is more than 100 µM; in [2] it was more than 59.8 µM; in assay [3], more than 100 µM; in assay [4], more than 88.5 µM; in assay [5], more than 100 µM; in [6] it was more than 100 µM. Also, the TGI was more than 65.4 µM in assay [7]; more than 100 µM in [8]; more than 100 µM in assay [9]; more than 100 µM in [10]; more than 100 µM in [11]; more than 86.1 µM in assay [12].

For `COc1cc(CNC(=O)CCCCCCCC/C=C/Br)ccc1O`, the TGI in assay [1], in assay [2], in assay [3], in assay [4], in assay [5] and in assay [6] was more than 10 µM in each case. Further, the TGI in assay [7], in assay [8], in assay [9], in assay [10], in assay [11] and in [12] was more than 10 µM in each case.

For the compound `CC(C)CCNC(=O)c1ccc(CNC(=O)/C=C/c2ccc(-c3ccccc3[N+](=O)[O-])o2)cc1`, the TGI in [1], in assay [2], in assay [3], in assay [4], in assay [5] and in assay [6] was more than 100 µM each time. In addition, the TGI is 55.3 µM in [7]; 62.9 µM in assay [8]; more than 100 µM in [9]; more than 100 µM in [10]; more than 100 µM in [11]; more than 100 µM in assay [12].

On to `COc1cc2cc(C(=O)N3CC(COS(C)(=O)=O)c4c3cc([N+](=O)[O-])c3ccccc43)[nH]c2c(OC)c1OC` (stereo unspecified), for which the TGI in assay [1] is more than 31.6 µM; in [2], 15.6 µM; in [3], more than 100 µM; in [4], more than 31.6 µM; in [5], more than 100 µM; in assay [6] it was more than 31.6 µM. Moreover, the TGI in [7] is more than 31.6 µM; in assay [8] it was more than 100 µM; in assay [9], more than 31.6 µM; in [10] it was more than 31.6 µM; in assay [11], more than 22.4 µM; in assay [12] it was more than 31.6 µM.

For the compound `COc1cc(/C=C2\NC(=O)N(/C=C3\C(=O)Oc4ccccc4C3=O)C2=O)ccc1O`, the TGI in assay [1], in [2], in assay [3], in assay [4], in assay [5] and in [6] was more than 100 µM in each case. Besides, the TGI in assay [7], in [8], in assay [9], in [10], in [11] and in assay [12] was more than 100 µM each time.

As to `O=C(O)/C(=C\c1ccccc1)Cc1ccccc1`, the TGI in assay [1], in assay [2], in assay [3], in [4], in assay [5] and in assay [6] was more than 100 µM throughout. Further, the TGI in [7], in assay [8], in assay [9], in assay [10], in [11] and in assay [12] was more than 100 µM throughout.

Consider `COC(=O)[C@]1(c2cc3ccccc3[nH]2)CC2CN(CC(=O)N(C)OC)C1C1OC(C)(C)OC21` (stereo partly specified), for which the TGI in assay [1], in [2], in [3], in assay [4], in assay [5] and in assay [6] was more than 100 µM each time. The TGI in [7], in assay [8], in assay [9], in assay [10], in assay [11] and in assay [12] was more than 100 µM throughout.

With `Nc1nc(Cl)cc(Nc2ccc3c(c2)CCC3)n1`, the TGI in assay [1], in assay [2], in assay [3], in assay [4], in assay [5] and in assay [6] was more than 100 µM throughout. Further, the TGI in [7], in assay [8], in assay [9], in assay [10], in [11] and in assay [12] was more than 100 µM each time.

For the compound `O=[N+]([O-])c1cc(Cl)ccc1S(=O)(=O)c1ccccc1`, the TGI in assay [1], in assay [2], in assay [3], in assay [4], in [5] and in assay [6] was more than 100 µM each time. In addition, the TGI in assay [7], in assay [8], in [9], in assay [10], in [11] and in assay [12] was more than 100 µM throughout.

On to `CNC(=O)N(CCC#N)CCN(CCN(C(=O)NC)c1ccccc1)C(=O)NC`, for which the TGI in assay [1], in [2], in assay [3], in [4], in assay [5] and in [6] was more than 100 µM each time. Besides, the TGI in [7], in assay [8], in assay [9], in assay [10], in assay [11] and in assay [12] was more than 100 µM throughout.

Regarding `COc1cc2c(cc1OC)-c1cc3ccccc3c(=O)n1CCC2`, the TGI in assay [1] was more than 59.1 µM; in [2], more than 38.6 µM; in [3] it was 13.7 µM; in assay [4] it was more than 86.1 µM; in assay [5], 78.9 µM; in assay [6], 61.2 µM. The TGI in assay [7] was more than 100 µM; in assay [8], 70.5 µM; in assay [9], more than 85 µM; in assay [10] it was 27.5 µM; in [11], more than 66 µM; in assay [12], 61.1 µM.

As to `CC(=O)OCCn1c(Cc2ccc([N+](=O)[O-])cc2)nn(C(C)=O)c1=O`, the TGI in assay [1], in [2], in assay [3], in assay [4], in [5] and in assay [6] was more than 100 µM in each case. The TGI in [7], in [8], in [9], in [10], in [11] and in assay [12] was more than 100 µM throughout.

The record behind these values is PubChem BioAssay (NCI).
